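Briefly, cells in 96-well plates were exposed to five compound concentrations for 48 h, and endpoints were estimated by linear interpolation. Definition used: TGI = concentration required for complete inhibition of growth.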
How the values were obtained:
Assay in all cases: NCI-60 cell line screen, 48 h
RPMI-8226 leukemia = test system: RPMI-8226 leukemia
IGROV1 ovarian = test system: IGROV1 ovarian
MALME-3M melanoma = test system: MALME-3M melanoma
HOP-92 NSCLC = test system: HOP-92 NSCLC
786-0 renal = test system: 786-0 renal
SF-539 CNS = test system: SF-539 CNS
BT-549 breast = test system: BT-549 breast
SNB-19 CNS = test system: SNB-19 CNS
UO-31 renal = test system: UO-31 renal
HCT-15 colon = test system: HCT-15 colon
NCI/ADR-RES ovarian = test system: NCI/ADR-RES ovarian
M14 melanoma = test system: M14 melanoma
SK-MEL-5 melanoma = test system: SK-MEL-5 melanoma
OVCAR-8 ovarian = test system: OVCAR-8 ovarian
NCI-H23 lung = test system: NCI-H23 lung
HS 578T breast = test system: HS 578T breast
UACC-257 melanoma = test system: UACC-257 melanoma
SF-295 CNS = test system: SF-295 CNS
NCI-H226 lung = test system: NCI-H226 lung
PC-3 prostate = test system: PC-3 prostate
SF-268 CNS = test system: SF-268 CNS
HOP-62 NSCLC = test system: HOP-62 NSCLC
T-47D breast = test system: T-47D breast
DU-145 prostate = test system: DU-145 prostate
EKVX NSCLC = test system: EKVX NSCLC
ACHN renal = test system: ACHN renal
SN12C renal = test system: SN12C renal
CCRF-CEM leukemia = test system: CCRF-CEM leukemia
SK-OV-3 ovarian = test system: SK-OV-3 ovarian
K-562 leukemia = test system: K-562 leukemia
MOLT-4 leukemia = test system: MOLT-4 leukemia
OVCAR-5 ovarian = test system: OVCAR-5 ovarian
MDA-MB-435 = test system: MDA-MB-435
MDA-MB-231 breast = test system: MDA-MB-231 breast
HL-60(TB) leukemia = test system: HL-60(TB) leukemia
HT29 colon = test system: HT29 colon
NCI-H460 lung = test system: NCI-H460 lung
MCF7 breast = test system: MCF7 breast
U251 CNS = test system: U251 CNS
KM12 colon = test system: KM12 colon
A549 NSCLC = test system: A549 NSCLC
HCC-2998 colon = test system: HCC-2998 colon
SK-MEL-2 melanoma = test system: SK-MEL-2 melanoma
RXF 393 renal = test system: RXF 393 renal
UACC-62 melanoma = test system: UACC-62 melanoma
HCT-116 colon = test system: HCT-116 colon
SW-620 colon = test system: SW-620 colon
CAKI-1 renal = test system: CAKI-1 renal
LOX IMVI melanoma = test system: LOX IMVI melanoma
OVCAR-3 ovarian = test system: OVCAR-3 ovarian
TK-10 renal = test system: TK-10 renal
COLO 205 colon = test system: COLO 205 colon
MDA-N = test system: MDA-N
OVCAR-4 ovarian = test system: OVCAR-4 ovarian
NCI-H522 lung = test system: NCI-H522 lung
SK-MEL-28 melanoma = test system: SK-MEL-28 melanoma
SNB-75 CNS = test system: SNB-75 CNS

`CCN1C(=O)C(=C/C=C/c2ccc(OC)cc2)C(=O)N(CC)C1=S` was tested, and the TGI (RPMI-8226 leukemia) was > 100 µM, the TGI (IGROV1 ovarian) was 35.7 µM and the TGI (MALME-3M melanoma) was 28 µM. The TGI (HOP-92 NSCLC) was 28.9 µM, the TGI (786-0 renal) was 32.6 µM and the TGI (SF-539 CNS) was 40.4 µM. For the same compound, the TGI (BT-549 breast) was 90.1 µM, the TGI (SNB-19 CNS) was > 100 µM and the TGI (UO-31 renal) was > 100 µM. It also gave a TGI (HCT-15 colon) of 36.4 µM, a TGI (NCI/ADR-RES ovarian) of 37.4 µM and a TGI (M14 melanoma) of 52.5 µM. The TGI (SK-MEL-5 melanoma) was 71.7 µM, the TGI (OVCAR-8 ovarian) was 44.7 µM and the TGI (NCI-H23 lung) was > 100 µM. For the same compound, the TGI (HS 578T breast) was > 100 µM, the TGI (UACC-257 melanoma) was 30.3 µM and the TGI (SF-295 CNS) was > 100 µM. For the same compound, the TGI (NCI-H226 lung) was > 100 µM, the TGI (PC-3 prostate) was 37.3 µM and the TGI (SF-268 CNS) was 88.3 µM. The TGI (HOP-62 NSCLC) was 36.1 µM, the TGI (T-47D breast) was > 100 µM and the TGI (DU-145 prostate) was 34 µM. It also gave a TGI (EKVX NSCLC) of 78.9 µM, a TGI (ACHN renal) of 31.5 µM and a TGI (SN12C renal) of 35.4 µM. For the same compound, the TGI (CCRF-CEM leukemia) was 75.3 µM, the TGI (SK-OV-3 ovarian) was 57.8 µM and the TGI (K-562 leukemia) was > 100 µM. For the same compound, the TGI (MOLT-4 leukemia) was > 100 µM, the TGI (OVCAR-5 ovarian) was > 100 µM and the TGI (MDA-MB-435) was 43.6 µM. The TGI (MDA-MB-231 breast) was 37.2 µM, the TGI (HL-60(TB) leukemia) was > 100 µM and the TGI (HT29 colon) was 58.9 µM. For the same compound, the TGI (NCI-H460 lung) was > 100 µM, the TGI (MCF7 breast) was > 100 µM and the TGI (U251 CNS) was 36.6 µM. For the same compound, the TGI (KM12 colon) was 40.5 µM, the TGI (A549 NSCLC) was > 100 µM and the TGI (HCC-2998 colon) was > 100 µM. The TGI (SK-MEL-2 melanoma) was > 100 µM, the TGI (RXF 393 renal) was 39.8 µM and the TGI (UACC-62 melanoma) was 31.7 µM. The TGI (HCT-116 colon) was 31.8 µM, the TGI (SW-620 colon) was 44 µM and the TGI (CAKI-1 renal) was 47.2 µM. For the same compound, the TGI (LOX IMVI melanoma) was 32.6 µM, the TGI (OVCAR-3 ovarian) was 31.2 µM and the TGI (TK-10 renal) was 31.8 µM. For the same compound, the TGI (COLO 205 colon) was 36 µM, the TGI (MDA-N) was 36.6 µM and the TGI (OVCAR-4 ovarian) was > 100 µM.
For `O=C1c2ccccc2C(=Nc2ccc3ccccc3c2)C1(C1=C(c2ccccc2)C(=Nc2ccc3ccccc3c2)c2ccccc21)c1ccccc1` (stereo not drawn), the TGI (RPMI-8226 leukemia) was 18.2 µM, the TGI (IGROV1 ovarian) was > 100 µM and the TGI (HOP-92 NSCLC) was > 100 µM. The TGI (786-0 renal) was > 100 µM, the TGI (SF-539 CNS) was > 100 µM and the TGI (BT-549 breast) was 73.3 µM. The TGI (SNB-19 CNS) was > 100 µM, the TGI (UO-31 renal) was 37 µM and the TGI (HCT-15 colon) was > 23.8 µM. For the same compound, the TGI (NCI-H522 lung) was > 100 µM, the TGI (NCI/ADR-RES ovarian) was > 100 µM and the TGI (M14 melanoma) was > 86.8 µM. For the same compound, the TGI (SK-MEL-5 melanoma) was 7.47 µM, the TGI (OVCAR-8 ovarian) was > 94.1 µM and the TGI (NCI-H23 lung) was > 31.3 µM. For the same compound, the TGI (HS 578T breast) was > 100 µM, the TGI (UACC-257 melanoma) was > 100 µM and the TGI (SF-295 CNS) was > 100 µM. For the same compound, the TGI (NCI-H226 lung) was > 44.4 µM, the TGI (PC-3 prostate) was > 100 µM and the TGI (SF-268 CNS) was > 100 µM. For the same compound, the TGI (HOP-62 NSCLC) was > 100 µM, the TGI (T-47D breast) was > 100 µM and the TGI (DU-145 prostate) was > 100 µM. For the same compound, the TGI (EKVX NSCLC) was > 100 µM, the TGI (ACHN renal) was 15 µM and the TGI (SN12C renal) was > 100 µM. For the same compound, the TGI (CCRF-CEM leukemia) was > 100 µM, the TGI (SK-OV-3 ovarian) was > 100 µM and the TGI (SK-MEL-28 melanoma) was > 100 µM. The TGI (K-562 leukemia) was > 43.5 µM, the TGI (MOLT-4 leukemia) was 7.81 µM and the TGI (OVCAR-5 ovarian) was > 100 µM. The TGI (MDA-MB-435) was > 87.3 µM, the TGI (MDA-MB-231 breast) was > 100 µM and the TGI (HL-60(TB) leukemia) was > 29 µM. For the same compound, the TGI (HT29 colon) was > 100 µM, the TGI (NCI-H460 lung) was > 100 µM and the TGI (MCF7 breast) was > 65.6 µM. For the same compound, the TGI (SNB-75 CNS) was > 70.4 µM, the TGI (U251 CNS) was > 100 µM and the TGI (KM12 colon) was > 42.6 µM. For the same compound, the TGI (A549 NSCLC) was > 100 µM, the TGI (HCC-2998 colon) was > 63.4 µM and the TGI (SK-MEL-2 melanoma) was > 69.5 µM. For the same compound, the TGI (RXF 393 renal) was > 100 µM, the TGI (UACC-62 melanoma) was > 53.5 µM and the TGI (HCT-116 colon) was > 100 µM. For the same compound, the TGI (SW-620 colon) was > 100 µM, the TGI (CAKI-1 renal) was > 100 µM and the TGI (LOX IMVI melanoma) was > 100 µM. For the same compound, the TGI (OVCAR-3 ovarian) was > 100 µM, the TGI (TK-10 renal) was > 100 µM and the TGI (COLO 205 colon) was > 100 µM. For the same compound, the TGI (MDA-N) was > 59.1 µM and the TGI (OVCAR-4 ovarian) was > 100 µM.
For `c1cc(-c2ccc(-c3ccc(-c4ccc(-c5cccc6nsnc56)[nH]4)c4nsnc34)[nH]2)c2nsnc2c1`, the TGI (RPMI-8226 leukemia) was > 100 µM, the TGI (IGROV1 ovarian) was > 100 µM and the TGI (MALME-3M melanoma) was > 100 µM. The TGI (HOP-92 NSCLC) was > 100 µM, the TGI (786-0 renal) was > 100 µM and the TGI (BT-549 breast) was > 100 µM. For the same compound, the TGI (SNB-19 CNS) was > 100 µM, the TGI (UO-31 renal) was > 100 µM and the TGI (HCT-15 colon) was > 100 µM. The TGI (NCI-H522 lung) was > 100 µM, the TGI (NCI/ADR-RES ovarian) was > 100 µM and the TGI (M14 melanoma) was > 100 µM. For the same compound, the TGI (SK-MEL-5 melanoma) was > 100 µM, the TGI (OVCAR-8 ovarian) was > 100 µM and the TGI (NCI-H23 lung) was > 100 µM. For the same compound, the TGI (HS 578T breast) was > 100 µM, the TGI (SF-295 CNS) was > 100 µM and the TGI (NCI-H226 lung) was > 100 µM. For the same compound, the TGI (PC-3 prostate) was > 100 µM, the TGI (SF-268 CNS) was > 100 µM and the TGI (HOP-62 NSCLC) was > 100 µM. For the same compound, the TGI (T-47D breast) was > 100 µM, the TGI (DU-145 prostate) was > 100 µM and the TGI (EKVX NSCLC) was > 100 µM. For the same compound, the TGI (ACHN renal) was > 100 µM, the TGI (SN12C renal) was > 100 µM and the TGI (CCRF-CEM leukemia) was > 100 µM. For the same compound, the TGI (SK-OV-3 ovarian) was > 100 µM, the TGI (SK-MEL-28 melanoma) was > 100 µM and the TGI (K-562 leukemia) was > 100 µM. For the same compound, the TGI (MOLT-4 leukemia) was > 100 µM, the TGI (OVCAR-5 ovarian) was > 100 µM and the TGI (MDA-MB-435) was > 100 µM. The TGI (MDA-MB-231 breast) was > 100 µM, the TGI (HL-60(TB) leukemia) was 30.1 µM and the TGI (HT29 colon) was > 100 µM. For the same compound, the TGI (NCI-H460 lung) was > 100 µM, the TGI (MCF7 breast) was > 100 µM and the TGI (SNB-75 CNS) was > 100 µM. The TGI (U251 CNS) was > 100 µM, the TGI (KM12 colon) was > 100 µM and the TGI (A549 NSCLC) was > 100 µM. The TGI (HCC-2998 colon) was > 100 µM, the TGI (SK-MEL-2 melanoma) was > 100 µM and the TGI (UACC-62 melanoma) was > 100 µM. For the same compound, the TGI (HCT-116 colon) was > 100 µM, the TGI (SW-620 colon) was > 100 µM and the TGI (LOX IMVI melanoma) was > 100 µM. The TGI (OVCAR-3 ovarian) was > 100 µM, the TGI (TK-10 renal) was > 100 µM and the TGI (COLO 205 colon) was > 100 µM. For the same compound, the TGI (MDA-N) was > 100 µM and the TGI (OVCAR-4 ovarian) was > 100 µM.
